Series [1] deals with T1, Glutamate carboxypeptidase 2 (Homo sapiens, UniProt Q04609). Nature of the series: Binding affinity to PSMA in human LNCAP cells assessed as doxorubicin release in nucleus measured after 40 milliseconds. The class given is ADME, cell-based.
Series [2] in a line: Drug uptake in cytoplasm of PSMA-negative human PC3 cells measured after 40 milliseconds. It counts as ADME, subcellular. Conditions: pc-3.
The target of series [3] is T1, Glutamate carboxypeptidase 2. Description: Binding affinity to PSMA in human LNCAP cells assessed as doxorubicin release in cytoplasm measured after 40 milliseconds. The class given is ADME, cell-based.
The subject of a further series is LNCaP. Nature of the series: Cytotoxicity against PSMA-positive human LNCAP cells by MTT assay. It counts as functional. A general note: Tetrazolium assays rely on reduction of a dye to a coloured formazan, in cell work by metabolically active cells.
Series [4] has as its target T1, Glutamate carboxypeptidase 2. Nature of the series: Binding affinity to PSMA in human LNCAP cells assessed as doxorubicin release in cytoplasm measured after 48 hrs. It counts as ADME, cell-based.
Series [5] has as its system PC-3. Nature of the series: Cytotoxicity against PSMA-negative human PC3 cells by cellTiter 96 aqueous cell proliferation assay. It counts as functional, cell-based.
Series [6] can be described thus: Drug uptake in nucleus of PSMA-negative human PC3 cells measured after 40 milliseconds. The class given is ADME, subcellular. Conditions: pc-3.
For a further series, the system named is LNCaP C4-2. Nature of the series: Cytotoxicity against PSMA-positive human C4-2 cells by cellTiter 96 aqueous cell proliferation assay. It counts as functional, cell-based.
The subject of series [7] is PC-3. Nature of the series: Cytotoxicity against PSMA-negative human PC3 cells by MTT assay. It counts as functional.
Series [8] addresses T1, Glutamate carboxypeptidase 2. Nature of the series: Binding affinity to PSMA in human LNCAP cells measured after 2 hrs by DAPI staining based fluorescence assay. It counts as ADME, cell-based.
Series [9] is described as follows: Drug uptake in PSMA-negative human PC3 cells measured after 2 hrs by DAPI staining based fluorescence assay. It counts as ADME, cell-based. Conditions: pc-3, 2 h.
The nature of series [10]: Antitumor activity against PSMA-positive human PC3-PIP cells xenografted in nu/nu mouse assessed as tumor growth inhibition at 4 mg/kg, ip per week for 3 weeks relative to control. The class given is functional. To be noted: 504 h, read-out: TGI. (In general: A xenograft is tissue or cells of one species grown in another, often human tumour cells in immunodeficient mice.)

Series [11] is described as follows: Drug uptake in nucleus of PSMA-positive human LNCAP cells at 15 uM measured after 2 hrs by DAPI staining based fluorescence assay. It counts as ADME, subcellular.
The nature of series [12]: Drug uptake in nucleus of PSMA-positive human LNCAP cells measured after 48 hrs. It counts as ADME, subcellular.
Series [13] in a line: Drug uptake in nucleus of PSMA-negative human PC3 cells at 15 uM measured after 2 hrs by DAPI staining based fluorescence assay. It counts as ADME, subcellular. To be noted: pc-3, 2 h.
Series [14] in a line: Ratio of drug level in nucleus to cytoplasm of PSMA-positive human LNCAP cells measured after 40 milliseconds. The class given is ADME.
The nature of series [15]: Ratio of drug level in nucleus to cytoplasm of PSMA-negative human PC3 cells measured after 40 milliseconds. It counts as ADME.

Data on three compounds can be found in ChEMBL document CHEMBL4392830, “Synthesis and biological evaluation of Doxorubicin-containing conjugate targeting PSMA” (Bioorg Med Chem Lett, 2019).

The structures appear in SMILES notation. pIC50: −log10 of the molar value. Activity calls are given as the source filed them. The calls are words filed in the database; no cut-off is given here. A value given as a limit tells only on which side of the number the result lay.

What is called CC50 is the concentration that lowers cell viability or growth by half. For orientation: pIC50 means −log10 of the IC50, conventionally taken in molar units.

T1 sequence (Q04609 whole entry): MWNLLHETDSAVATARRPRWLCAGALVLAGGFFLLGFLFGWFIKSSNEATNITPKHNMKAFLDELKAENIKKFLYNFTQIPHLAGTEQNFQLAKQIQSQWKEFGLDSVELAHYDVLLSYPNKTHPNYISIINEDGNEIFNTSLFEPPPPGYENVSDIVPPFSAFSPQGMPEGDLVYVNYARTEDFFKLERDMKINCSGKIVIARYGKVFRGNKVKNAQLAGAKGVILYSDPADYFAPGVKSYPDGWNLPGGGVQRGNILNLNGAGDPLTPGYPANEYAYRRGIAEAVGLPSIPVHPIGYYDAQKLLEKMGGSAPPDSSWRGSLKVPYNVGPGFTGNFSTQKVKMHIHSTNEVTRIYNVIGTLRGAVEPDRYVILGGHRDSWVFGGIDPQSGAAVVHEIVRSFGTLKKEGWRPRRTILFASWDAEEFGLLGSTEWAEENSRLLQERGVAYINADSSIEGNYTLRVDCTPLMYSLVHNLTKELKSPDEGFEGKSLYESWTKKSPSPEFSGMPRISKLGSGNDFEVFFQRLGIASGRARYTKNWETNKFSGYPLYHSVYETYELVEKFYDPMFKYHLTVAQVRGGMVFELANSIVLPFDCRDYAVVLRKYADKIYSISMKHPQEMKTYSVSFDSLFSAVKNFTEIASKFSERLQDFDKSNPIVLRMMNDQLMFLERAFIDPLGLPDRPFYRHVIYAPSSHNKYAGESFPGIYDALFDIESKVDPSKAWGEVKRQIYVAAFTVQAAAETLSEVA

With `COc1cccc2c1C(=O)c1c(O)c3c(c(O)c1C2=O)C[C@@](O)(C(=O)CO)C[C@@H]3O[C@H]1C[C@H](NC(=O)CCC(=O)NCCCCCCCCCCC(=O)NCCCC[C@H](NC(=O)N[C@@H](CCC(=O)O)C(=O)O)C(=O)O)[C@H](O)[C@H](C)O1`, the Activity entry in series [1] is recorded as “Not Active”; in series [3], “Not Active”; in [4] it was “Active”. The Drug uptake entry in series [2] and in series [6] was “Not Active” each time. In addition, the CC50 entry with LNCaP and with PC-3 [7] was “inactive” in each case. Also, the result in the series on PC-3 [5] and in the series with LNCaP C4-2 was inactive.
Regarding `CN1\C(=C/C=C/C=C/C2=[N+](CCCCCC(=O)NCCCCCCCCCCC(=O)NCCCC[C@H](NC(=O)N[C@@H](CCC(=O)O)C(=O)O)C(=O)O)c3cc(S(=O)(=O)[O-])ccc3C2(C)C)C(C)(C)c2cc(S(=O)(=O)[O-])ccc21.[Na+]`, the result in series [8] was Active. Further, in series [9], the Drug uptake entry is listed as “Not Active”.
As for `COc1cccc2c1C(=O)c1c(O)c3c(c(O)c1C2=O)C[C@@](O)(C(=O)CO)C[C@@H]3O[C@H]1C[C@H](N)[C@H](O)[C@H](C)O1` [DOXORUBICIN], the inhibition in vivo at 4 mg/kg in series [10] turned out to be 92%. In addition, the half-maximal cytotoxic concentration (CC50) in the series on LNCaP was 107 nM; with PC-3 [7] it was under 500 nM. Moreover, the Drug uptake result in series [11], in series [12] and in series [13] was “Active” in each case. In addition, the negative-log IC50 (pIC50) in the series on PC-3 [5] and with LNCaP C4-2 was under 7.49 each time. Besides, the values for the Ratio in [14] and in series [15] were 3.5 and 3.7, respectively.
